In patent US12616740B2, “Methods of using a GIP/GLP1 co-agonist for therapy” (ELI LILLY AND COMPANY, priority 2018, dated 2026):

Key:
Type in all cases: in vivo, human
[1] = test system: patients with T2DM; test: Biomarkers measured in clinical studies (eGFR, triglyceride)
Procedure: Clinically relevant biomarkers are measured in clinical studies to further support the use of tirzepatide for treating chronic kidney disease. […] Clinical study laboratory measurements support the use of tirzepatide in the treatment of chronic kidney disease. Clinically relevant biomarkers are measured to assess and support the use of tirzepatide in the treatment of atherosclerosis. Clinically relevant triglyceride levels decrease in all tirzepatide treatment groups. Clinical observations support that tirezepatide can be beneficial for use in the treatment of atherosclerosis.

[2] = NCT03131687: decrease appetite (reported event)
Procedure: (§1) Clinical Study (NCT03131687) Supporting Maintenance Dose Embodiments A 6-month (26-week) Phase 2 double-blind clinical study is designed to evaluate the safety, efficacy, and PK/PD of 4 dose levels (1 mg, 5 mg, 10 mg and 15 mg respectively) of tirzepatide once weekly by subcutaneous injection compared with dulaglutide 1.5 mg. once weekly (QW) and placebo QW in patients with T2DM who have inadequate glycemic control with diet and exercise with or without a stable dose of metformin. Tirzepatide dose is up-titrated to the maintenance dose using the following weekly dose increments:
(§2) The study also has a 4-week follow up period. In addition to safety and efficacy for treating T2DM, efficacy endpoints include the effect of tirzepatide on HbA1c, FBG, body weight, lipids, and waist circumference compared with placebo and with dulaglutide 1.5 mg. The study also evaluates the effect of tirzepatide on GI tolerability, hypoglycemia, hypersensitivity reactions, and pancreatic safety, as well as the development of treatment-emergent anti-drug antibodies. Model-based dose response analyses are performed to predict potential for significant HbA1c lowering and weight loss in longer studies. Statistical Analyses: Efficacy: The primary efficacy outcome of HbA1c change from baseline to the 26-week endpoint is analyzed using a Bayesian dose-response model. Analyses are performed on the intention to treat population (mITT) analysis set. Supportive analysis of the primary efficacy outcome for the mITT dataset are the model for post-baseline measures (MMRM) with body mass index (BMI) (<30 kg/m^2, ≥30 kg/m^2), metformin use, treatment, visit, and treatment-by-visit interaction as fixed effects, baseline HbA1c as a covariate, and patient as a random effect. The mean weight change from baseline at 12 and 26 weeks, along with the mean change from baseline of HbA1c at 12 weeks, is analyzed using similar dose-response models as the primary analyses. The percentages of patients with ≥5% or ≥10% body weight loss, reaching the HbA1c target of ≤6.5% or ≤7.0% at 26 weeks, or requiring rescue therapy are analyzed using logistic regression with fixed effects of treatment and strata, and baseline as a covariate. The changes from baseline in FBG (fasting blood glucose), SMBG (self-monitored blood glucose) levels, waist circumference, and mean percentage change in lipids from baseline to 12 and 26 weeks are analyzed using a similar MMRM to the one used for the primary analyses. Table Abbreviations: Dula 1.5 mg=dulaglutide 1.5 mg once weekly; LY means tirzepatide, and LY 1 mg=tirzepatide 1 mg once weekly; LY 5 mg=5 mg once weekly; LY 10 mg=escalation dose group tirzepatide once weekly with highest dose of 10 mg; LY 15 mg=escalation dose group of tirzepatide once weekly with highest dose 15 mg; LOCF=last observation-carried-forward; N=number of patients; pbo=placebo; Week 26=mITT on-treatment data at Week 26 excluding data after study drug discontinuation or rescue drug initiation; mITT=modified intent-to-treat; SD=standard deviation. For Table 4, n=number of patients in the population with baseline and post-baseline value at the specified time point. For Table 6, LY10 mg=escalation dose group tirzepatide, once weekly with highest dose of 10 mg; escalation dose: (5 mg weeks 0 and 1), LY15 mg=escalation dose group tirzepatide, once weekly with highest dose of 15 mg; escalation dose: (5 mg weeks 0 and 1; 10 mg weeks 2 to 5); N=number of patients in specified group, m=number of patients who experienced new event during interval, FolUp=follow up, T/Wk=Time range, (week) and %=means percent patients spending at least some time in treatment group who experienced new event during interval. For Table 7, n is the number of patients with events meeting the criteria; N is number of patients in the population; % is percent of patients in treatment group experiencing the event.

[3] = NCT03131687: weight loss at Week 26
Procedure: as §1, §2

[4] = LY1 mg = tirzepatide 1 mg once weekly, N = 52
[5] = LY5 mg = tirzepatide 5 mg once weekly, N = 55
[6] = LY10 mg = tirzepatide once weekly, highest dose 10 mg, N = 51
[7] = LY15 mg = tirzepatide once weekly, highest dose 15 mg, N = 53
[8] = LY 1 mg = tirzepatide 1 mg once weekly, LOCF
[9] = LY 1 mg = tirzepatide 1 mg once weekly, second line, analysis set not given (not LOCF)
[10] = LY 5 mg = tirzepatide 5 mg once weekly, LOCF
[11] = LY 5 mg = tirzepatide 5 mg once weekly, second line, analysis set not given (not LOCF)
[12] = LY 10 mg = tirzepatide once weekly, highest dose 10 mg, LOCF
[13] = LY 10 mg = tirzepatide once weekly, highest dose 10 mg, second line, analysis set not given (not LOCF)
[14] = LY 15 mg = tirzepatide once weekly, highest dose 15 mg, LOCF
[15] = LY 15 mg = tirzepatide once weekly, highest dose 15 mg, second line, analysis set not given (not LOCF)

tirzepatide [LY]
triglyceride levels (in words) ([1]; all tirzepatide treatment groups): decrease
eGFR (in words) ([1]; study NCT03131687, at any dosage): no decrease in eGFR was observed
Decrease Appetite (reported): n, number of patients with events [2, 4]: n = 2;
Decrease Appetite (reported): percent of patients in treatment group experiencing the event [2, 4]: 3.8%
Decrease Appetite (reported): n, number of patients with events [2, 5]: n = 10;
Decrease Appetite (reported): percent of patients in treatment group experiencing the event [2, 5]: 18.2%
Decrease Appetite (reported): n, number of patients with events [2, 6]: n = 13;
Decrease Appetite (reported): percent of patients in treatment group experiencing the event [2, 6]: 25.5%
Decrease Appetite (reported): n, number of patients with events [2, 7]: n = 10;
Decrease Appetite (reported): percent of patients in treatment group experiencing the event [2, 7]: 18.9%
body weight change from baseline (in words) ([3]; 5 mg, 10 mg, and 15 mg doses of tirzepatide, significantly different from placebo and dulaglutide 1.5 mg): significantly decrease body weight from baseline
% of Patients Achieving Weight loss ≥10% [3, 8]: 5.8%
odds ratio vs. placebo, Weight loss ≥10% [3, 8]: 7.1
% of Patients Achieving Weight loss ≥10% [3, 9]: 6.8%
% of Patients Achieving Weight loss ≥15% [3, 9]: 0%
odds ratio vs. placebo, Weight loss ≥10% [3, 9]: 6.7
% of Patients Achieving Weight loss ≥10% [3, 10]: 16.4%
odds ratio vs. placebo, Weight loss ≥10% [3, 10]: 20.8
% of Patients Achieving Weight loss ≥10% [3, 11]: 16.7%
% of Patients Achieving Weight loss ≥15% [3, 11]: 6.3%
odds ratio vs. placebo, Weight loss ≥10% [3, 11]: 17.2
% of Patients Achieving Weight loss ≥10% [3, 12]: 39.2%
odds ratio vs. placebo, Weight loss ≥10% [3, 12]: 67.6
% of Patients Achieving Weight loss ≥10% [3, 13]: 45.5%
% of Patients Achieving Weight loss ≥15% [3, 13]: 25.0%
odds ratio vs. placebo, Weight loss ≥10% [3, 13]: 71.7
% of Patients Achieving Weight loss ≥10% [3, 14]: 37.7%
odds ratio vs. placebo, Weight loss ≥10% [3, 14]: 66.2
% of Patients Achieving Weight loss ≥10% [3, 15]: 54.3%
% of Patients Achieving Weight loss ≥15% [3, 15]: 34.3%
odds ratio vs. placebo, Weight loss ≥10% [3, 15]: 109.2
